Laboratory results from ChEMBL document CHEMBL5223073, “Andrographolide suppresses cisplatin-induced endothelial hyperpermeability through activation of PI3K/Akt and eNOS -derived nitric oxide” (Bioorg Med Chem, 2020).
Calls of active or inactive are those of the source. No cut-off for these calls is given here.

What was measured:
[1] = target: Nuclear factor NF-kappa-B complex (Homo sapiens) (UniProt Q00653+P19838+Q04206); assay: Inhibition of cisplatin-induced NF-kappaB activation in HUVEC cell nuclear extract assessed as reduction in NF-kappaB-DNA binding activity at 100 uM incubated for 1 hr by electrophoretic mobility shift assay; assay type: subcellular; conditions: Nucleus
Chain of Nuclear factor NF-kappa-B complex (Homo sapiens) (P19838 whole entry, looked up): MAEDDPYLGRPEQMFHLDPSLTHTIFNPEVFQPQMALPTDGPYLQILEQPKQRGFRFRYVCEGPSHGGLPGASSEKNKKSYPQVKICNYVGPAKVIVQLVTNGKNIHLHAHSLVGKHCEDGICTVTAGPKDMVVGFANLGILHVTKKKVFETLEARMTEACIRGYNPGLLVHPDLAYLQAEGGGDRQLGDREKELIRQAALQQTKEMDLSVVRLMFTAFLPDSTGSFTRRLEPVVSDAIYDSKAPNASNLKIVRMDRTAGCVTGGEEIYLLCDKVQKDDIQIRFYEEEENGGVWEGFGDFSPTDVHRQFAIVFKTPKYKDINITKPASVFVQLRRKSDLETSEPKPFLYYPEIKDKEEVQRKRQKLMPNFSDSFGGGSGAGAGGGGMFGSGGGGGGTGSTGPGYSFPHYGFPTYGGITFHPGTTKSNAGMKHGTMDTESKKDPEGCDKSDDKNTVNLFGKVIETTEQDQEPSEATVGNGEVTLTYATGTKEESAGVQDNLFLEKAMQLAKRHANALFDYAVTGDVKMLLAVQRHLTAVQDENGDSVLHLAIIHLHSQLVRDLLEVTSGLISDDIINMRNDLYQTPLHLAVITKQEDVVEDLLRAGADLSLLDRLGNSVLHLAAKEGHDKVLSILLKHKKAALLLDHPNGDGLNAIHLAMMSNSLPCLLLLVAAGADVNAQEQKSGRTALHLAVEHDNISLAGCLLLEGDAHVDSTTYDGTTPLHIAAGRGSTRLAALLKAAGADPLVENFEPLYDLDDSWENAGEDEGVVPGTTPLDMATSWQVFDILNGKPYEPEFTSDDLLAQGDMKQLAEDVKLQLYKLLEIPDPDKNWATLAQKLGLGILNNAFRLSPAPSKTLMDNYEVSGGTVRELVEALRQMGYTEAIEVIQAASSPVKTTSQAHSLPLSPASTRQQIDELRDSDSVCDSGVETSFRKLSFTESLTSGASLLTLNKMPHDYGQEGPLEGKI
Chain of Nuclear factor NF-kappa-B complex (Homo sapiens) (Q00653 whole entry, looked up): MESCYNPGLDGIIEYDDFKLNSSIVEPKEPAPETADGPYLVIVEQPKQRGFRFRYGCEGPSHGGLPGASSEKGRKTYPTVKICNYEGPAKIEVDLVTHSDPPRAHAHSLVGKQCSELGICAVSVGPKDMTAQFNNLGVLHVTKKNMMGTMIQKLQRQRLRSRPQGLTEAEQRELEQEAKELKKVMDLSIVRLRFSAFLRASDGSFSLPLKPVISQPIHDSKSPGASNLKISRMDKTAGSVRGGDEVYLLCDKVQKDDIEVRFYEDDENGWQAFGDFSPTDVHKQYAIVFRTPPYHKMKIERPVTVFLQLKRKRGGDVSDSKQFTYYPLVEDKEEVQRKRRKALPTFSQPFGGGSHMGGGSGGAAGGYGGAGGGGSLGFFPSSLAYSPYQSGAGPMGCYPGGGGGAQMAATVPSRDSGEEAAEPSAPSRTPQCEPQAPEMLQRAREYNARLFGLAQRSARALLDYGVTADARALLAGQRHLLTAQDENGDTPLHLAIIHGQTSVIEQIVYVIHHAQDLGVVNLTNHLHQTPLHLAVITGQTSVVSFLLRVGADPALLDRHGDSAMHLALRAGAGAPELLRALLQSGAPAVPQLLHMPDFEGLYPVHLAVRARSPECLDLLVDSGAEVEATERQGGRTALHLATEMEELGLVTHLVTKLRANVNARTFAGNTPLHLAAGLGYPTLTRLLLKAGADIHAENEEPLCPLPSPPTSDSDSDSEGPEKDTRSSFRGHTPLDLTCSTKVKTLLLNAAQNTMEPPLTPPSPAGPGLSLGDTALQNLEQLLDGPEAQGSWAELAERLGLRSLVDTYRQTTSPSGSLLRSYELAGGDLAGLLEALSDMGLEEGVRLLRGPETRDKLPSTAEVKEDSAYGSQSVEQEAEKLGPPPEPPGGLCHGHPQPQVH
Chain of Nuclear factor NF-kappa-B complex (Homo sapiens) (Q04206 whole entry, looked up): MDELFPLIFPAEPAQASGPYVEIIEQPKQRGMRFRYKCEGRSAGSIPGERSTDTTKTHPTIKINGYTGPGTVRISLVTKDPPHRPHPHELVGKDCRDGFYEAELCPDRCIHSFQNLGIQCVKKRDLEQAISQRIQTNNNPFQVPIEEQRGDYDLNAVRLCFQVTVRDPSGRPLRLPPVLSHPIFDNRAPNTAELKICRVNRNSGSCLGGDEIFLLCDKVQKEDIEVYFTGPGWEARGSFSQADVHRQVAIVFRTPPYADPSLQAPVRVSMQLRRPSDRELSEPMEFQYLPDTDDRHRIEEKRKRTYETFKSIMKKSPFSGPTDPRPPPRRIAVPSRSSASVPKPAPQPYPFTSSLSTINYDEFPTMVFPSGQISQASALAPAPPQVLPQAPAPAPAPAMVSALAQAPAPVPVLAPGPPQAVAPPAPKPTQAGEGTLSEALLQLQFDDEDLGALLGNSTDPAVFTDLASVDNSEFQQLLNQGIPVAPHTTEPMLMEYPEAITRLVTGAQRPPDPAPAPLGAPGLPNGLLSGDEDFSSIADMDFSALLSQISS

[2] = target: T1, NF-kappa-B inhibitor alpha (Homo sapiens) (UniProt P25963); assay: Inhibition of cisplatin-induced phosphorylation of IkappaBalpha at Ser32/36 residue in HUVEC cells at 100 uM incubated for 1 hr by Western blot analysis; assay type: cell-based
T1 sequence (whole entry): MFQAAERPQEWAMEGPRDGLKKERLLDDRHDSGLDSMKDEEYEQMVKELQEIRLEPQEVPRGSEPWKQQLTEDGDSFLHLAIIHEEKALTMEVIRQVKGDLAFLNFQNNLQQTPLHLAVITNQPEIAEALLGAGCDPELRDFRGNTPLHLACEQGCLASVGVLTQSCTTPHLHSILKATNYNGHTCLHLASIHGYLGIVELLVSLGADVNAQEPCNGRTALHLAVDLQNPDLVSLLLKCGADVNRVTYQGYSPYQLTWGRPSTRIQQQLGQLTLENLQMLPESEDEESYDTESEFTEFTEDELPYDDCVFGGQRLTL

[3] = target: Transcription factor p65 (Homo sapiens) (UniProt Q04206); assay: Inhibition of cisplatin-induced phosphorylation of p65 subunit at Ser536 residue in HUVEC cells at 100 uM incubated for 1 hr by Western blot analysis; assay type: cell-based
Chain of Transcription factor p65 (Homo sapiens) (Q04206 whole entry): as the sequence (Q04206 whole entry, looked up) above

HUVEC [4] = assay: Inhibition of cisplatin-induced PKCalpha translocation in HUVEC cells at 100 uM incubated for 15 mins in presence of cisplatin by Western blot analysis; assay type: functional, cell-based; conditions: Homo sapiens
HUVEC [5] = assay: Inhibition of cisplatin-induced TRPC1 phosphorylation in [32P] orthophosphate labeled HUVEC cells at 100 uM incubated for 15 mins in presence of cisplatin by Western blot analysis; assay type: cell-based; conditions: Homo sapiens
HUVEC [6] = assay: Inhibition of cisplatin-induced store operated Ca2+ release in HUVEC cells at 100 uM preincubated with compound followed by cisplatin stimulation by Fura-2 AM staining based calcium influx assay; assay type: functional, cell-based; conditions: Homo sapiens
HUVEC [7] = assay: Improvement in cisplatin-induced endothelial monolayer integrity in HUVEC cells assessed as increase in transendothelial electric resistance at 100 uM preincubated with compound followed by cisplatin stimulation and measured after 45 mins; assay type: functional, cell-based; conditions: Homo sapiens
HUVEC [8] = assay: Inhibition of cisplatin-induced TRPC1 phosphorylation in [32P] orthophosphate labeled HUVEC cells at […] incubated for 15 mins in presence of cisplatin by Western blot analysis; assay type: cell-based; conditions: Homo sapiens

inhibition [1]	inhibition [2]	inhibition [3]	SMILES	inhibition (HUVEC [4])	inhibition (HUVEC [5])	inhibition (HUVEC [6])	Activity (HUVEC [7])	inhibition (HUVEC [8])
Active	Active	Active	CC(=O)N[C@@H](C(=O)O)C(C)(C)SN=O	Active	Active	Active	Active	
			Cn1c2ccccc2c2c3c(c4c5ccccc5n(CCC#N)c4c21)CNC3=O					Active
